Consider one substance from patent US20090011410A1, “METHOD FOR TAILORING ADMINISTRATION OF DRUGS BY QUANTITATION OF MRNA” (priority 2004, published 2009).

One experiment has as its system IL-2 mRNA. As to the kind of experiment: PHA-P-induced leukocyte IL-2 mRNA expression in heparinized whole blood of healthy adults. The experiment is classed as cell-based, human. An excerpt: Blood was obtained from healthy adults and from patients with psoriasis (4), aplastic anemia (1), nephrotic syndrome (1), and bone marrow transplantation (2). At the time of blood draw, one EDTA tube was sent to clinical laboratory for the measurement of leukocyte counts, and one heparin tube was stored on ice. […] Fifty μL each of blood sample was applied to three different wells of filterplates (triplicate from the beginning), and leukocytes were collected on the membrane by centrifugation at 800×g for 2 min. After washing each well with 300 μL phosphate buffered saline (PBS) once by centrifugation, the lysis buffer described above was applied to each well and incubated at 37° C. for 10 min to release mRNA from trapped leukocytes. The lysate was then transferred to oligo-(dT)-immobilized microplates (GenePlate, RNAture, Irvine, Calif.) by centrifugation at 2000× g for 5 min, and incubated at 4° C. overnight for hybridization. After washing each well with 100 μL lysis buffer 3 times followed by 150 μL wash buffer (10 mM Tris, pH 7.4, 1 mM EDTA, pH 8.0, and 0.5 M NaCl) 3 times, cDNA was synthesized in each well by adding buffer, nucleotides, a cocktail of specific primers, RNasin, and MMLV reverse transcriptase (Promega, Madison, Wis.), and incubated at 37° C. for 2 hours. […]

Another experiment has as its system lymphocyte blastogenesis. The note with it: induction of lymphocyte blastogenesis, activity declined at higher doses; cited from earlier work.

Consider phytohemagglutinin-P [PHA-P], for which the “PHA-P concentration from which IL-2 mRNA increased” value in the experiment with IL-2 mRNA (heparinized whole blood (FIG. 18)) is at least 5 µg/mL. In addition, in the experiment with IL-2 mRNA (heparinized whole blood (FIG. 18, 19)), the “PHA-P concentration over which IL-2 mRNA reached a plateau” value is listed as “over 40 μg/mL”. In addition, in the experiment on lymphocyte blastogenesis, the “PHA-P concentration of maximal action” value was 10 to 20 µg/mL.
